According to patent publication US9084770B2, “Modulation of insulin like growth factor I receptor expression in cancer” (Antisense Therapeutics, Ltd., priority 2008, dated 2015):
Like-named read-outs stand apart in the source and are kept apart here.

Assays:
[1] = tested on: PC3 cells; test: Growth of PC3 cells with chemotherapeutic agents; type: cell-based, human; conditions: read-out: IC50 (cell growth)
Text: (§1) PC3 cells cultured in vitro were selected for resistance to Paclitaxel (Ptx-R).

[2] = tested on: Ptx-R PC3 cells; test: Growth of Paclitaxel resistant Ptx-R PC3 cells with chemotherapeutic agents; type: cell-based, human; conditions: read-out: IC50 (cell growth)
Text: as §1

[3] = tested on: PC3 cells; test: PC3 viable cells and apoptosis after transfection plus Paclitaxel; conditions: Homo sapiens, PC-3, 72 h, read-out: reduction of viable cell count
Method: PC3 cells cultured in vitro were transfected at concentrations of IGF-IR antisense oligonucleotide (ATL1101) or control oligodeoxynucleotide (ISIS 306064) ranging from 12.5 nM to 50 nM or oligofectamine control once per day on two sequential days. After the 2nd transfection, the PC3 cells were treated with concentrations of between 0.1 to 50 nM Paclitaxel. The number of viable cells remaining were determined 72 hours after Paclitaxel treatment.

[4] = tested on: human IGF-IR mRNA; test: Antisense inhibition of human IGF-IR mRNA levels by quantitative RT-PCR (Table 1); type: cell-based; design: %INHIB (human IGF-IR mRNA levels): concentration or dose not given beside the values; conditions: for inhibition of IGF-IR expression (lead compounds): as shown in Table 1; for %INHIB (human IGF-IR mRNA levels): quantitative RT-PCR, averages from 3 experiments
[5] = Homo sapiens, PC-3, standard culture conditions

| Molecule | %INHIB (human IGF-IR mRNA levels) [4] | also measured |
| --- | --- | --- |
| O=C1c2c(O)ccc(O)c2C(=O)c2c(NCCNCCO)ccc(NCCNCCO)c21 [Mitoxantrone] | – | IC50 [1, 5]: 8.8 nM; IC50 [2, 5]: 376 nM |
| N.N.[Cl][Pt][Cl] [Cisplatin] | – | IC50 ([1]; standard culture conditions): 10 nM; IC50 ([2]; standard culture conditions): 24.7 nM |
| CC(=O)O[C@@]12CO[C@@H]1C[C@H](O)[C@@]1(C)C(=O)[C@H](O)C3=C(C)[C@@H](OC(=O)[C@H](O)[C@@H](NC(=O)OC(C)(C)C)c4ccccc4)C[C@@](O)([C@@H](OC(=O)c4ccccc4)[C@H]21)C3(C)C [Docataxel] | – | IC50 [1, 5]: 0.827 nM; IC50 [2, 5]: 10 nM |
| CC(=O)O[C@H]1C(=O)[C@@]2(C)[C@H]([C@H](OC(=O)c3ccccc3)[C@]3(O)C[C@H](OC(=O)[C@H](O)[C@@H](NC(=O)c4ccccc4)c4ccccc4)C(C)=C1C3(C)C)[C@]1(OC(C)=O)CO[C@@H]1C[C@@H]2O [Paclitaxel] | – | IC50 [1, 5]: 2.56 nM; cytotoxicity at 0.0001 µM [3]: ~5%; IC50 [2, 5]: 50.3 nM |
| 175308 (antisense GTCGTCGGCCTCCATTTTCA; listed as DNA, chemistry not fully specified) [compound 175308] | 94% | inhibition of IGF-IR expression (lead compounds) [4]: demonstrated inhibition |
| 323700 (antisense CCCTCGATCACCGTGCAGTT; listed as DNA, chemistry not fully specified) [compound 323700] | 56% | – |
| 323749 (antisense GCGCTGCAGCCCAGCTTCTC; listed as DNA, chemistry not fully specified) [compound 323749] | 71% | – |
| 175318 (antisense GAAACGCGGAGTCAAAATGA; listed as DNA, chemistry not fully specified) [compound 175318] | 68% | – |
| 323747 (antisense CCAGCTTCTCAGCCTCGTGG; listed as DNA, chemistry not fully specified) [compound 323747] | 85% | inhibition of IGF-IR expression (lead compounds) [4]: demonstrated inhibition |
| 175306 (antisense AAGTCCGGGTCACAGGCGAG; listed as DNA, chemistry not fully specified) [compound 175306] | 54% | – |
| 175320 (antisense CCAAATCCAGGACACACACA; listed as DNA, chemistry not fully specified) [compound 175320] | 64% | – |
| 323751 (antisense GCCACTTTAAAAAGATGGAG; listed as DNA, chemistry not fully specified) [compound 323751] | 77% | – |
| 323729 (antisense ATGTTCCAGCTGTTGGAGCC; listed as DNA, chemistry not fully specified) [compound 323729] | 72% | – |
| 175294 (antisense GAAGTCCGGGTCACAGGCGA; listed as DNA, chemistry not fully specified) [compound 175294] | 77% | – |
| 323731 (antisense GTCCAGGGCTTCAGCCCATG; listed as DNA, chemistry not fully specified) [compound 323731] | 74% | – |
| 323730 (antisense CCACCATGTTCCAGCTGTTG; listed as DNA, chemistry not fully specified) [compound 323730] | 78% | – |
| 323723 (antisense AGCAGCGGTAGTTGTACTCA; listed as DNA, chemistry not fully specified) [compound 323723] | 70% | – |
| 323760 (antisense GCGATCTCCCAGAGGACGAC; listed as DNA, chemistry not fully specified) [compound 323760] | 72% | – |
| 323699 (antisense CTTCAGCTGCTGATAGTCGT; listed as DNA, chemistry not fully specified) [compound 323699] | 74% | – |
| 323712 (antisense TCTCAATCCTGATGGCCCCC; listed as DNA, chemistry not fully specified) [compound 323712] | 56% | – |
| 323701 (antisense TTGGAGATGAGCAGGATGTG; listed as DNA, chemistry not fully specified) [compound 323701] | 65% | – |
| 323704 (antisense CGGTAGTCCTCGGCCTTGGA; listed as DNA, chemistry not fully specified) [compound 323704] | 71% | – |
